This is an account of results in patent US11952358B2, “Flavan-3-ol analogs and anti-inflammatory activity” (Hong Kong Baptist University, priority 2021, dated 2024).

One data set relates to RAW 264.7 cells. The experiment in a line: CCK8 cell viability assay. The conditions noted are these: 100 μM, 24 h. In kind it is cell-based, mouse. The protocol: RAW 264.7 cells were plated in a 96-well plate and treated with each compound (0, 25 μM, 50 μM and 100 μM) for 24 h. The viability of cells was tested by CCK8 assay. Data from three times independent experiments were expressed as means±SD. *P<0.05 compared with the control group for compound 3a-3j.
RAW 264.7 cells were plated in a 96-well plate and treated with each compound (0, 25 μM, 50 μM and 100 μM) for 24 h. The viability of cells was tested by CCK8 assay. Data from three times independent experiments were expressed as means±SD. *P<0.05 compared with the control group for compound 3k-3t.
RAW 264.7 cells were plated in a 96-well plate and treated with each compound (0, 25 μM, 50 μM and 100 μM) for 24 h. The viability of cells was tested by CCK8 assay. Data from three times independent experiments were expressed as means±SD. *P<0.05 compared with the control group for compound 3u-3ad.
RAW 264.7 cells were plated in a 96-well plate and treated with each compound (0, 25 μM, 50 μM and 100 μM) for 24 h. The viability of cells was tested by CCK8 assay. Data from three times independent experiments were expressed as means±SD. *P<0.05 compared with the control group for compound 3ae-3ag′.
Cell Viability Assay The CCK8 assay was used to evaluate the effect of each flavan-3-ol on the viability of RAW264.7 cells. Cells were plated into 96-well plates at a density of 2×10^5 cells/well in medium and cultured overnight. For formal experiments, cells were treated with different concentrations of flavan-3-ols (25, 50, and 100 μM). After 24 h, 20 μl CCK8 solution (cat #A311-01/02, Vazyme Biotech Co., Ltd., Nanjing, China) was added into the medium and incubated for 45 min. The absorbance was measured at 450 nm.
To evaluate the anti-inflammatory effects of these newly synthesized flavan-3-ols, RAW 264.7 cells (mouse monocyte/macrophage cell) were used as the in vitro model. First, CCK-8 (Cell Counting Kit-8) assay was performed to test the effects of these newly synthesized flavan-3-ols on cell viability (FIG. 9a-d). RAW 264.7 cells were treated with the newly synthesized flavan-3-ols ranging from 25 to 100 μM for 24 h. As shown in […], treatment with each compound at 25 and 50 μM for 24 h had no effect on the cell viability of RAW 264.7 cell. […] Therefore, the final concentration of each compound used in the following experiments were no more than 100 μM, and compound concentrations at 25 and 50 μM were used in the further experiments.
(Formazan colour is commonly taken as a measure of viable cells.)

For data set [1], the system named is LPS-stimulated RAW 264.7 cells. Nature of the data set: RNA-sequencing analysis with GO and KEGG enrichment. It is filed as cell-based, mouse. The conditions noted are these: for inflammation-related genes downregulated: KEGG-classified inflammation-related genes. How it is done:
RNA-sequencing analysis RAW 264.7 cells were treated with each flavan-3-ol (25, 50 μM) for 24 h followed by LPS (1 μg/mL) stimulation for another 2 h. Cells were collected and then directly prepared for cDNAs amplification and RNA-Seq library construction. Total RNA was isolated with TRIzol reagent from each group. A complementary DNA library was prepared and sequencing was performed according to the Illumina standard protocol developed by Suzhou GENEWIZ Biological Technology Co., Ltd. (https://www.genewiz.com). […] After filtering, reference genome and gene model annotation files were downloaded from a genome website browser (NCBI/UCSC/Ensembl). Indexes of the reference genome were built using Bowtie v2.0.6 and paired-end clean reads were aligned to the reference genome using TopHat v2.0.9. Bowtie was used for a BWT (Burrows-Wheeler Transformer) algorithm for mapping reads to the genome and Tophat can generate a database of splice junctions based on the gene model annotation file and thus achieve a better mapping result than other non-splice mapping tools. For the quantification of gene expression level, HTSeq V0.6.1 was used to count the read numbers mapped for each gene. The RPKM of each gene was calculated based on the gene read counts mapped to this gene. A differential expression analysis was performed using the DESeq R package (1.10.1). For clustering, the inventors clustered different samples to see the correlation using hierarchical clustering distance method with the function of heatmap, SOM (Self-organization mapping) and k means using silhouette coefficient to adapt the optimal classification with default parameter in R. The complete RNA-seq datasets in this manuscript captioned has been deposited at GEO database (http://www.ncbi.nlm.nih.gov/geo/) under accession ID GSE181052.
Gene ontology (GO) and KEGG enrichment analysis GO enrichment analysis of differentially expressed genes was implemented by the GOseq R Package, in which gene length bias was corrected. GO analysis was performed with the DAVID online tool (https://david.ncifcrf.gov/). Top GO categories were selected according to the P-values. Pathways of differentially expressed genes were analyzed by the KEGG database (http://www.kegg.jp/kegg/). The inventors used KOBAS software to test the statistical enrichment of differential expression genes in KEGG pathways.
RNA-seq analysis of downstream genes regulated by flavan-3-ols. […] RNA-seq analysis was performed to further study the effects of compounds 3m, 3o, 3p, 3ae and 3ag on gene transcriptional pathways related to inflammation. RAW 264.7 cells were used in the RNA-seq analysis, in which cells were pretreated with each compound (50 μM) for 24 h followed by LPS (1 μg/mL) stimulation for another 2 h. […] Next, the inventors focused on genes related to inflammatory reactions and inflammation-related diseases (inflammation-related genes) based on the gene and pathway classification of Kyoto Encyclopedia of Genes and Genomes (KEGG database).
To further analyze the functional distribution of differentially-expressed genes in relation to different biological processes, cellular components and molecular functions, gene ontology (GO) enrichment analysis was performed. The histogram of GO enrichment of differentially-expressed genes was presented.
Furthermore, to determine the biochemical metabolic pathways and signal transduction pathways involved in differentially expressed genes regulated by compound 3ag, KEGG pathway analysis was then performed.

The next data set deals with IL-1β. Nature of the data set: ELISA of IL-1β secretion from LPS-stimulated RAW 264.7 cells. It is filed as cell-based, mouse. The conditions noted are these: compound 50 μM 24 h, then LPS 1 μg/mL 2 h (FIG. 8). The protocol:
RAW 264.7 cells were pretreated with each compound (50 μM) for 24 h followed by LPS (1 μg/mL) stimulation for another 2 h. The concentrations of IL-1β in RAW 264.7 cell culture supernatants were measured by ELISA kits and the inhibition rate of compound on the secretion of each pro-inflammatory cytokine was calculated. Data from three independent experiments were expressed as means±SD. *P<0.05, **P<0.01 compared with LPS-stimulated group.
Cell culture The RAW 264.7 cell line was purchased from the Cell Bank of Shanghai Institute of Biochemistry & Cell Biology at the Chinese Academy of Sciences (Shanghai, China) and cultured in DMEM supplemented with 10% (v/v) fetal bovine serum (FBS), 100 U/ml penicillin and 100 […], in a stable environment with 5% CO2 at 37° C. Before used in the following in vitro experiments, RAW 264.7 cells were pretreated with synthesized flavan-3-ol (25, 50 μM) for 24 h followed by LPS (1 μg/mL) stimulation for another 2 h.
Enzyme-Linked Immunosorbent Assay (ELISA) RAW 264.7 cells were treated with these synthesized flavan-3-ols (25, 50 μM) for 24 h followed by LPS (1 μg/mL) stimulation for another 2 h and the culture supernatant was collected. The concentrations of IL-1β, IL-6 and TNF-α in the culture supernatant of RAW 264.7 cells were determined according to the manufacturer's instructions of the Duo-set enzyme linked immune sorbent assay kits, purchased from R&D Systems Co. Ltd. (Minneapolis, MN, USA).
The increased pro-inflammatory cytokines production in RAW 264.7 cells has been reported to play an influential role in the inflammation response. To evaluate the anti-inflammatory effects of these flavan-3-ols in vitro, ELISA kits were employed to investigate their effects on the LPS (lipopolysaccharide)-induced pro-inflammatory cytokines production of RAW 264.7 cells. After treating with the flavan-3-ols (25 and 50 μM) and stimulated by LPS, the levels of three main pro-inflammation cytokines including IL-1β ([…]), IL-6 (interleukin-6), and TNF-α (tumor necrosis factor-α) in culture supernatant from RAW 264.7 cells were measured by ELISA kits, and then the inhibition rates of the flavan-3-ols on the secretion of each pro-inflammatory cytokine were calculated by the formula shown as follows.
[formula] In this formula, “L” refers to “the pro-inflammatory cytokine level in cell culture supernatant of LPS-induced group (L)” and “Lc” refers to “the pro-inflammatory cytokine level in cell culture supernatant of compound-treated group (Lc)”. Using this calculation, the reduced levels of pro-inflammation cytokines in the compound treated group would give higher values, which reflect higher inhibition rates.
FIG. 4a-c show the effect of flavan-3-ols on pro-inflammatory cytokine secretion in vitro. RAW 264.7 cells were pretreated with each compound (25, 50 μM) for 24 h followed by LPS (1 μg/mL) stimulation for another 2 h. The concentrations of IL-1β, IL-6, TNF-α in RAW 264.7 cell culture supernatants were measured by ELISA kits and the inhibition rate of compound on the secretion of each pro-inflammatory cytokine was calculated.

Setting [2] is: 50 μM, vs LPS-stimulated group, of a total of 1915 genes.

For orientation: melting point means the temperature of the solid-liquid transition. On to `O[C@H]1Cc2cc(F)ccc2O[C@@H]1c1ccccc1` [3ad, (2R,3S)-6-fluoro-2-phenylchroman-3-ol], for which the melting point fell in the range of 110 to 111 °C. The “effect on cell viability” value in the data set on RAW 264.7 cells is “reduced viability”.
With `O[C@H]1Cc2cc(Cl)cc(Cl)c2O[C@@H]1c1ccccc1` [3ag, (2R,3S)-6,8-dichloro-2-phenylchroman-3-ol], the melting point fell in the range of 126 to 127 °C. This molecule displayed a genes differentially regulated in data set [1] (50 μM 24 h, then LPS 1 μg/mL 2 h, vs untreated LPS-stimulated group) of 1098 genes. For the same molecule, in data set [1] (50 μM, vs LPS-stimulated group), the genes downregulated is 954 genes, the genes upregulated is listed as 144 genes and the inflammation-related genes downregulated came out at 40 genes. Besides, in data set [1] (setting [2]), the “genes downregulated, share of genes expressed” value stood at 49.8% and the “genes upregulated, share of genes expressed” value was 7.5%. Also, the “GO enrichment of downregulated genes” value in data set [1] (vs LPS-induced group (FIG. 6)) is “associated with inflammatory response (GO: 0006954) and cellular response to lipopolysaccharide (GO: 0071222)”. Also, the “KEGG pathways of downregulated genes” value in data set [1] (vs LPS-induced group (FIG. 7a-b)) is “IL-17 signaling pathways, PI3K-Akt signaling pathway and TNF signaling pathway”. Besides, the “inhibition rate of IL-1β secretion compared with enantiomer and racemic form” value with IL-1β is “higher inhibition rates than their enantiomers”.
As to `O[C@H]1Cc2c(F)cc(F)cc2O[C@@H]1c1ccc(F)c(F)c1` [3ai, (2R,3S)-2-(3,4-difluorophenyl)-5,7-difluorochroman-3-ol], the “effect on cell viability” value in the data set with RAW 264.7 cells was “reduced viability”.
In turn, `O[C@H]1Cc2ccccc2O[C@@H]1c1ccc(C(F)(F)F)cc1` [3i, (2R,3S)-2-(4-(trifluoromethyl)phenyl)chroman-3-ol] yielded a melting point of 114 to 115 °C. In the data set with RAW 264.7 cells, the “effect on cell viability” value is reported as “reduced viability”.
As for `O[C@H]1Cc2ccccc2O[C@@H]1c1ccc2ccccc2c1` [3m, (2R,3S)-2-(naphthalen-2-yl)chroman-3-ol], the melting point was in the range of 141 to 142 °C. Besides, the inflammation-related genes downregulated entry in data set [1] (50 μM, vs LPS-stimulated group) is “downregulated parts of inflammation-related genes”. In addition, in the data set on IL-1β, the “inhibition rate of IL-1β secretion compared with enantiomer and racemic form” value is listed as “higher inhibition rates than their enantiomers”.
The molecule `O[C@H]1Cc2ccccc2O[C@@H]1c1cccs1` [3n, (2S,3S)-2-(thiophen-2-yl)chroman-3-ol] yielded a melting point of 94 to 95 °C. The “effect on cell viability” value with RAW 264.7 cells was “reduced viability”.
Consider `O[C@H]1Cc2ccccc2O[C@@H]1c1ccco1` [3o, (2S,3S)-2-(furan-2-yl)chroman-3-ol], for which the melting point lay in the range of 80 to 81 °C. For the same molecule, the inflammation-related genes downregulated result in data set [1] (50 μM, vs LPS-stimulated group) is recorded as “downregulated parts of inflammation-related genes”. Moreover, the “inhibition rate of IL-1β secretion compared with enantiomer and racemic form” value with IL-1β is reported as “higher inhibition rates than their enantiomers”.
